pIC50, pKi: −log10 of the molar value. Where “and” joins values, the source holds several entries; their conditions need not be identical. Equal values may be shown once.
Target: T1, Gag-Pol polyprotein [489-587,G537V,H558K,V571A] (Human immunodeficiency virus, UniProt P12497, G537V/H558K/V571A)
T1 construct: 489-587
Assay: Inhibiton Activity Assay
Method: The inhibition activity against HIV-1 PR and three mutants (G48V, V82F, V82A)were done in 96 well microtiter plate and were assayed. Wells that showed 50% inhibition of the enzyme activity were selected and diluted to 10nM and screened again.

In the case of `COc1ccc(S(=O)(=O)N(CC(C)C)C[C@@H](O)[C@H](Cc2ccccc2)n2cc(COC(=O)N[C@H]3c4ccccc4C[C@H]3O)nn2)cc1` [HIV-1 PR Inhibitor, compound 6], the pIC50 was 8.22 and 7.72 and 7.41 and 7.34.

For `COc1ccc(S(=O)(=O)N(CC(C)C)C[C@@H](O)[C@H](Cc2ccccc2)n2cc(CNC(=O)c3ccc(CNC(=O)OC(C)(C)C)cc3)nn2)cc1` [HIV-1 PR Inhibitor, compound 8], the pIC50 was 7.89 and 7.62 and 7.77 and 7.28 and the pKi was 8.40 and 7.89 and 8.01 and 7.52.

Source: BindingDB's records for doi:10.1002/cbic.200300724 (The Scripps Research Institute, 2003)
